Target: T1, Full length Human HDAC6 (Homo sapiens, UniProt Q9UBN7)
T1 construct: Full length Human HDAC6; FLAG (C); host or cells: baculovirus expression system
T1 sequence (Q9UBN7 1-1215): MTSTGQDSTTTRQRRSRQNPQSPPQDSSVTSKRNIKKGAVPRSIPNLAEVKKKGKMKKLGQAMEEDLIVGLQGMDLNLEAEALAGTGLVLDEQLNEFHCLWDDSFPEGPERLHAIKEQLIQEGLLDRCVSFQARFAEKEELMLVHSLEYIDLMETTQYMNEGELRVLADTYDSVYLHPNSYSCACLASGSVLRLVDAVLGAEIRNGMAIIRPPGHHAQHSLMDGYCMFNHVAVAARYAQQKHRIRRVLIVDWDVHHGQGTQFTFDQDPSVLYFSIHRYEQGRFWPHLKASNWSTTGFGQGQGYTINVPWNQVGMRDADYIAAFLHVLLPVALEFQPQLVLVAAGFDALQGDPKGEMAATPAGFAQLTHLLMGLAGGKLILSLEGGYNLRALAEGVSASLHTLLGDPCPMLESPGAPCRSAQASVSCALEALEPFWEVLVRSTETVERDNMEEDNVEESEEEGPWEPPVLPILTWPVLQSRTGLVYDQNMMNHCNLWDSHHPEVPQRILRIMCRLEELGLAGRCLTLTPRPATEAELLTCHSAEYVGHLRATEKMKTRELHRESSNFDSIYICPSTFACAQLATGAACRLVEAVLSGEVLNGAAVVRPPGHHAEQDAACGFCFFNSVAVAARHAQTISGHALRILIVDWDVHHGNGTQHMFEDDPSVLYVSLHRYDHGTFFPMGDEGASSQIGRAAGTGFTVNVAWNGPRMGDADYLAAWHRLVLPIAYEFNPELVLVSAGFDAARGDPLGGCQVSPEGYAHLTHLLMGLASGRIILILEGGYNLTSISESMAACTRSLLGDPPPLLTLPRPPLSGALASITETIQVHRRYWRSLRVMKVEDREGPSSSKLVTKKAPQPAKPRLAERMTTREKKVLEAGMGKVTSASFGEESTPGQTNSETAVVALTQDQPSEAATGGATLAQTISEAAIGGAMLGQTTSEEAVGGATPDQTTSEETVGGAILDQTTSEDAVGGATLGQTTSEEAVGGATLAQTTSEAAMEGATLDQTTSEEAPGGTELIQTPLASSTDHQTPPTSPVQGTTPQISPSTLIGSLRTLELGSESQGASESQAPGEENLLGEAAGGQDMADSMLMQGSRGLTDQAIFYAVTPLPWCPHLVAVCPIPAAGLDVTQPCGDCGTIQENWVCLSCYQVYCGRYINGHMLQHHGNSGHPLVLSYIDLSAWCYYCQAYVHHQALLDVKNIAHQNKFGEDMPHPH
Assay: In vitro HDAC6 enzymatic activity (Caliper endpoint assay or Nanosyn fluorogenic format)
Format: biochemical
Conditions: 30 min pre-incubation with enzyme

| IC50 [nM] | SMILES |
| --- | --- |
| 1 to 100 | FC(F)c1nnc(-c2ccc(COc3cccc4ncccc34)nc2)o1 [Compound 63, 2-(difluoromethyl)-5-[6-(5-quinolyloxymethyl)-3-pyridyl]-1,3,4-oxadiazole] |
| 1 to 100 | FC(F)c1nnc(-c2ccc(COc3ccc4cccnc4c3)nc2)o1 [Compound 34, 2-(difluoromethyl)-5-[6-(7-quinolyloxymethyl)-3-pyridyl]-1,3,4-oxadiazole] |

Reference: US20250230166A1, “OXADIAZOLE HDAC6 INHIBITORS AND USES THEREOF” (Eikonizo Therapeutics, Inc., priority 2022, published 2025)
